Test results: patent US8071103B2, “Pharmaceutical composition comprising a human GLP-1 mimetibody” (Centocor, Inc., priority 2006, dated 2011)
One block for each compound: values may come before it. Where no end group is shown, it is not given here.

Tests used:
db/db mice = experiment: Blood glucose after intravenous dosing in db/db mice; assay type: in vivo; conditions: 0.5-4 hours post-dosing
Description: Blood glucose was monitored 0.5, 1, 2, 3, and 4 hours post-dosing.

normal dogs = experiment: Gastric emptying in normal dogs; assay type: in vivo, beagle dogs; conditions: relative to vehicle
Description: A gastric cannula was surgically implanted into female beagle dogs (10-15 kg) under general anesthesia and allowed to recover for at least 2 weeks. Dogs were fasted for 24 hours after which water was freely available. The gastric cannula was opened and gastric juice and food remnants were removed with 40-50 ml of lukewarm water. Groups of six dogs were dosed subcutaneously with lidamidine, an alpha2 agonist (0.63 mg/kg), 60 minutes before the meal, a positive control for delay of gastric emptying. […] Five minutes before the meal, the gastric cannula was opened to determine the amount of fluid present in stomach for baseline value and fluid was promptly reintroduced. Then a test meal consisting of 250 ml of a glucose solution (5 g/1) was administered via the cannula and allowed to remain in the stomach for 30 minutes. Gastric contents were drained from the stomach to measure total volume after 30 minutes. […] Glucose concentrations were evaluated for collected samples and used to determine the absolute amount of glucose remaining in the stomach at each time point. The percentage of glucose retained in the stomach was determined from the starting value and the concentration of glucose at each time point and plotted as a function of time. The time at which 50% of the gastric contents were retained was determined by fitting of the curves to a single exponential.

RINm cells = experiment: Insulin secretion in RINm cells; assay type: cell-based; conditions: peptides 0-5 nM, mimetibodies 5 or 50 nM, ELISA
Description: GLP-1 MMB causes insulin secretion in RINm cells. To test the effect of GLP-1 MMB in insulin secretion, RINm cells were treated with increasing concentrations of GLP-1 (7-36) peptide (0-5 nM), exendin-4 peptide (0-5 nM), or various GLP-1 mimetibodies (5 or 50 nM) and the amount of insulin secreted was measured via ELISA. All GLP-1 MMBs tested had activities in stimulating insulin secretion in RINm cells (FIG. 6).

GLP-1 receptor [1] = biological target: T1, GLP-1 receptor (Mus musculus, UniProt O35659); experiment: Food intake in GLP-1R−/− and wild type mice; assay type: in vivo; conditions: wild type mice, single iv, GLP-1 MMB 1 mg/kg, exendin-4 0.07 mg/kg
T1 construct: Male GLP-1R−/− and age matched wild type mice; from tissue; host or cells: whole animal (wild type mice; GLP-1R-/- mice as receptor-free control)
T1 sequence (O35659 22-463): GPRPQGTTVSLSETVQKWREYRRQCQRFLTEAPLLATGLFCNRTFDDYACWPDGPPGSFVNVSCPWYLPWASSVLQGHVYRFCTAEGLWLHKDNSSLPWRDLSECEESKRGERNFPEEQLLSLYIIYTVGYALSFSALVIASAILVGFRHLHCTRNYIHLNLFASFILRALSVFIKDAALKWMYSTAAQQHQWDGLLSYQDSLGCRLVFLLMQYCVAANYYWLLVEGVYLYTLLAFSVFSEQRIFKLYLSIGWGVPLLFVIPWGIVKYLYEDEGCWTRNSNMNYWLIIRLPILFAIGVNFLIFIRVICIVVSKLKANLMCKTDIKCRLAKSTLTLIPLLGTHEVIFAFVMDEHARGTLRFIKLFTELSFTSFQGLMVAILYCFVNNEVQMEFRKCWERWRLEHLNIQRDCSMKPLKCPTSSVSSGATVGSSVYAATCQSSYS
From the text: (§1) Materials/Methods: Animals: Male GLP-1R−/− and age matched wild type mice were randomized into three treatment groups (n=5) based on body weight and fasting blood glucose.

GLP-1 receptor [2] = experiment: Food intake in GLP-1R−/− and wild type mice; assay type: in vivo; conditions: GLP-1R−/− mice, single iv, GLP-1 MMB 1 mg/kg, exendin-4 0.07 mg/kg
From the text: as §1

GLP-1 receptor [3] = biological target: T1, GLP-1 receptor; experiment: Gastric emptying in GLP-1R−/− and wild type mice; assay type: in vivo; conditions: wild type mice, single iv, GLP-1 MMB 1 mg/kg, exendin-4 0.07 mg/kg
Description: as §1
(§2) Gastric Emptying: Mice were fasted overnight. The next morning mice were re-fed for 1 h, food intake was recorded and the mice were deprived of food for the rest of the study. Mice were dosed intravenously as discussed above. Two hours post-dosing mice were euthenized.
(§3) The stomach was exposed by laparotomy, ligated at both the pylorus and cardia and removed.
(§4) The stomach content wet weight was measured. Equation 1 was used to calculate the percent of food remaining in the stomach. (Stomach Content Wet Weight (g)/Food Intake (g))*100 Equation (1)

GLP-1 receptor [4] = experiment: Gastric emptying in GLP-1R−/− and wild type mice; assay type: in vivo; conditions: GLP-1R−/− mice, single iv, GLP-1 MMB 1 mg/kg, exendin-4 0.07 mg/kg
Description: as §1, §2, §3, §4

GLP-1 receptor [5] = biological target: T1, GLP-1 receptor; experiment: Glucose tolerance test (ipGTT) in GLP-1R−/− and wild type mice; assay type: in vivo; conditions: wild type mice, single iv, GLP-1 MMB 1 mg/kg, exendin-4 0.07 mg/kg
Description: as §1
Glucose tolerance test (ipGTT): Mice were fasted overnight and dosed intravenously as discussed above. Fasting glucose was measured via tail snips using a hand-held glucometer (LifeScan). At t=0 min, mice were dosed i.p. with D-glucose (1.0 mg/g, Sigma) and blood glucose was measured after 15, 30, 60, 90 and 120 min using tail vein blood

Compound: CC[C@H](C)[C@H](NC(=O)[C@H](Cc1ccccc1)NC(=O)[C@H](CCC(=O)O)NC(=O)[C@H](CCCCN)NC(=O)[C@H](C)NC(=O)[C@H](C)NC(=O)[C@H](CCC(N)=O)NC(=O)CNC(=O)[C@H](CCC(=O)O)NC(=O)[C@H](CC(C)C)NC(=O)[C@H](Cc1ccc(O)cc1)NC(=O)[C@H](CO)NC(=O)[C@H](CO)NC(=O)[C@@H](NC(=O)[C@H](CC(=O)O)NC(=O)[C@H](CO)NC(=O)[C@@H](NC(=O)[C@H](Cc1ccccc1)NC(=O)[C@@H](NC(=O)CNC(=O)[C@H](CCC(=O)O)NC(=O)[C@H](C)NC(=O)[C@@H](N)Cc1c[nH]cn1)[C@@H](C)O)[C@@H](C)O)C(C)C)C(=O)N[C@@H](C)C(=O)N[C@@H](Cc1c[nH]c2ccccc12)C(=O)N[C@@H](CC(C)C)C(=O)N[C@H](C(=O)N[C@@H](CCCCN)C(=O)NCC(=O)N[C@@H](CCCNC(=N)N)C(N)=O)C(C)C [GLP-1 peptide]
blood glucose (db/db mice): lowered blood glucose at 30 minutes

Compound: CN=C(N)NC(=O)Nc1c(C)cccc1C [lidamidine]
gastric emptying (normal dogs): significant delay in gastric emptying

Compound: GLP-1 (7-36) peptide: wide-type GLP-1 (7-36) peptide (HAEGTFTSDVSSYLEGQAAKEFIAWLVKGR; ends and bridges not checked; UniProt P01275 98-127, looked up)
insulin secretion in RINm cells (RINm cells): stimulates insulin release

24 hour cumulative food intake compared to CNTO1996 (GLP-1 receptor [1]): statistically significant reduction
stomach content (percent of food remaining) 2 h after dosing compared to CNTO1996 (GLP-1 receptor [3]): statistically significant increase
Compound: exendin-4 [reference compound]
food intake (GLP-1 receptor [2]): no effect
insulin secretion in RINm cells (RINm cells): stimulates insulin release
gastric emptying (GLP-1 receptor [4]): no effect
AUC of ipGTT (GLP-1 receptor [5]): statistically significant reduction
